In article PMC10818746, “Inhibition of CYP1A1 Alleviates Colchicine-Induced Hepatotoxicity” (Toxins, 2024):

Assays:
CYP1A1 [1] = target: T1, CYP1A1 (Homo sapiens, UniProt P04798); test: Inhibition of CYP1A1 demethylation metabolism of colchicine by co-incubation with inhibitor; format: biochemical; conditions: colchicine 25 µM co-cultured with α-naphthoflavone 10 µM; n = 3
T1 construct: purchased Research Institute for Liver Diseases Co., Ltd. (Shanghai, China)
T1 sequence (P04798 1-512): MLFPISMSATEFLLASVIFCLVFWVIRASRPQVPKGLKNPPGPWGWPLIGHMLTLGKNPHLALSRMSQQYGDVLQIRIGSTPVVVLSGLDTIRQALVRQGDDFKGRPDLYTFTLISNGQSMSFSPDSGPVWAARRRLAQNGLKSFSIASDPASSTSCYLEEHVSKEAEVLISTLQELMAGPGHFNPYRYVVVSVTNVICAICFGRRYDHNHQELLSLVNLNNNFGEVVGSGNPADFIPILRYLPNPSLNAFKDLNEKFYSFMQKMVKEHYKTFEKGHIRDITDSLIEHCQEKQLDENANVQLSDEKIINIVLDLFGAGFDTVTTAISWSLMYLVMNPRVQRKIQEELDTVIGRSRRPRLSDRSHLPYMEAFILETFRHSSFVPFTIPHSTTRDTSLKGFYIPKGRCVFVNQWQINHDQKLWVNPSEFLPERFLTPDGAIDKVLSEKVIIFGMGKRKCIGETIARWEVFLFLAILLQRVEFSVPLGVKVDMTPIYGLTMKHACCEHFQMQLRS
Protocol: The control group was a system without NADPH or colchicine. […] Pre-cooled acetonitrile was used to terminate the reaction, and then centrifugation (4 °C, 12,000 rpm, 20 min) was performed to obtain the sample.
All samples were analyzed as shown in [17] and are briefly described in Supporting Information.

liver [2] = test: α-Naphthoflavone intervention in colchicine-induced liver injury in mice; format: in vivo, C57BL/6J mice
CASPASE-1-GSDMD pathway = test: Western blot of CASPASE-1-GSDMD pathway in primary hepatocytes; format: cell-based, C57BL/6J mice
Protocol: (§1) The method of isolating primary mouse hepatocytes from mice (C57BL/6J) was that shown in the previous report, and it is briefly described in Supporting Information.
(§2) The cells were harvested and used for protein extraction after incubation for 48 h. […]
(§3) Supplementary materials and methods […]
(§4) Preparation of primary hepatocytes
(§5) Primary mouse hepatocytes were isolated from male C57BL/6J mice as shown in previous literature. The liver was perfused through the portal vei n with Hanks solution twice (the first solution contains 1% penicillin/streptomycin, the second solution contains 0.05% collagenase IV) after mice were anesthetized with ether, and then they were killed by exsanguination. Hepatocytes were harvested by centrifugation three times (The first centrifugal condition is 50 0 rpm for 3 minutes, the second and third centrifugal condition is 1500 rpm for 5 min) after the perfused liver was passed through 100 filter sizes, and they were re‐suspended in Dulbeco Modified Eagle Medium (DMEM) (Hyclone, USA).
(§6) Cells were collected and seeded at a density of 2 × 10^5 cells ml‐1 in plates and cultured overnight in William E (Gibco, USA) medium (0.5 U/mL insulin, 1% penicillin/streptomycin, 10% FBS and 0.4 μg/mL dexamethasone) at 37 ℃ in a humidified Air /CO2 Incubator (5% V/V). […]
QPCR were performed as described previously. Briefly, Trizol reagent (Life Technologi es, Carlsbad, CA, USA) and SYBR Green PCR master mixture (Vazyme, Nanjing, China) were used for the experiment . The qPCR was performed in the CFX Connect real‐time system (Bio‐Rad Laboratories, Hercules, CA, USA), with 18S was used as […]
The methods for Western blot analysis were described in previous literature. Briefly, RIPA (POO13B, Beyotime Biotech), BCA kit (P0009, Beyotime Biotech), and 5% BSA (A8020, Solarbio) buffer were used for the experiment. […]

liver [3] = test: Diosmin co-treatment in colchicine-induced liver injury in mice; format: in vivo, C57BL/6J mice
Protocol: To investigate the role of CYP1A1 in colchicine-induced liver injury in mice, a CYP1A1 agonist (diosmin) was used. […] All mice in the control group received 0.5% CMC-Na prior to the administration of water, and the mice were sacrificed for sample collection 24 h after the final administration.
Supplementary Materials: Inhibition of CYP1A1 Alleviates
(§7) Ruoyue Huang, Jingyi Duan, We n Huang, Ya n Cheng, Bei wei Zhu and Fei Li
(§8) Supplementary materials and methods
(§9) Reference numbers refer to the main text list
(§10) UHPLC‐Q exactive plus MS Analysis
(§11) All samples were analyzed on a liquid chromatography system including a Vanquish autosampler, Vanquish detector, Vanquish pump (Thremo Fisher Scientific, Santa Clara, CA). Samples were separated on an ACQUITY UPLC HSS T3 column (2.1×100 mm, […], Waters, USA). The injection volume: 5 μL, and the flow rate was 0.3 mL/min.
Phase A was H2O containing 0.01% formic acid, and phase B was acetonitrile containing 0.01% formic acid. The elution gradient was as follows: 0‐12 mi n, 2‐98% B; 12‐14 min, 2% A; 14‐16 min, 98% A. Other parameters are as follows: column temperature 45 ℃ , flow rate of collision gas and dry gas 9 L/min. Capillary voltage 3.5 kV, temperature 350 ℃ , atomizer pressure 35 psi. […]
(§12) Quantitative real‐time PCR analysis […]
(§13) Immunohistochemistry was determined by used the previously described method. […]

primary hepatocytes = test: MTT cell viability in primary hepatocytes co-treated with colchicine and diosmin; format: cell-based, C57BL/6J mice; conditions: diosmin pre-treatment 2 h, then colchicine 100 µM, 48 h
Excerpt: The method of isolating primary mouse hepatocytes from mice (C57BL/6J) was that shown in the previous report, and it is briefly described in Supporting Information. […]
as §3, §4, §5, §6
QPCR were performed as described previously. Briefly, Trizol reagent (Life Technologi es, Carlsbad, CA, USA) and SYBR Green PCR master mixture (Vazyme, Nanjing, China) were used for the experiment . […]

CYP1A1 [4] = test: CYP1A1 gene and protein expression in the liver of colchicine-treated mice; format: in vivo, C57BL/6J mice; conditions: colchicine 3, 5 mg/kg by gavage for 3 days; dose-dependent
Protocol: as §7, §8, §9, §10, §11
Phase A was H2O containing 0.01% formic acid, and phase B was acetonitrile containing 0.01% formic acid. The elution gradient was as follows: 0‐12 mi n, 2‐98% B; 12‐14 min, 2% A; 14‐16 min, 98% A. Other parameters are as follows: column temperature 45 ℃ , flow rate of collision gas and dry gas 9 L/min. Capillary voltage 3.5 kV, temperature 350 ℃ , atomizer pressure 35 psi. Vanquish UHPLC‐Q Exactive plus MS (Thermo Fisher, USA) was collected in both positive modes, operating in full scan mode with 60‐900 m/z.
as §4
Primary mouse hepatocytes were isolated from male C57BL/6J mice as shown in previous literature. […]
as §12, §13

CYP1A1 [5] = test: CYP1A1 gene and protein expression in primary hepatocytes; format: cell-based, C57BL/6J mice; conditions: colchicine 4–400 µM, 48 h
Protocol: as §1, §2, §3, §4, §5
Cells were collected and seeded at a density of 2 × 10^5 cells ml‐1 in plates and cultured overnight in William E (Gibco, USA) medium (0.5 U/mL insulin, 1% penicillin/streptomycin, 10% FBS and 0.4 μg/mL dexamethasone) at 37 ℃ in a humidified Air /CO2 Incubator (5% V/V).
Quantitative real‐time PCR analysis
QPCR were performed as described previously. […]

liver [6] = test: Colchicine-induced liver injury in mice
Protocol: The animal studies were approved by the Animal Care and Use Committee of West China Hospital, Sichuan University (20230412004, the ethics approval date was 12 April 2023). Chengdu Yaokang Biotechnology Co., Ltd. (Chengdu, China), provided the male C57BL/6J mice (18–22 g, 6 to 8 weeks old, No. SCXK (Sichuan) 2020-034). All animals were acclimated to the experimental environment for 1 week, and finally, the animals were anesthetized with CO2 and killed [38].
ALP, ALT and AST were measured in plasma, and MDA (Nanjing Jiancheng Bioengineering Institute, Nanjing, China) was measured in the liver. Histological characteristics were observed by preparing paraffin sections of liver tissue and performing hematoxylin and eosin (H&E) staining.

[7] = colchicine 3, 5 mg/kg by gavage for 3 consecutive days

O=c1cc(-c2ccccc2)oc2c1ccc1ccccc12 [α-naphthoflavone]
demethylation metabolism of colchicine by CYP1A1 (CYP1A1 [1]): significantly inhibited | colchicine-induced liver injury (AST, ALT enzyme activity and MDA oxidative stress) (liver [2]; α-naphthoflavone 30 mg/kg i.p. 2 h prior to colchicine 5 mg/kg, 3 days): significantly alleviated | CASPASE-1-GSDMD pathway proteins (cl-CASPASE, cl-GSDMD) in the liver (liver [2]; α-naphthoflavone 30 mg/kg i.p. + colchicine 5 mg/kg, versus colchicine group): significantly down-regulated | CASPASE-1-GSDMD pathway protein levels in primary hepatocytes (CASPASE-1-GSDMD pathway; colchicine + different concentrations of α-naphthoflavone, dose-gradient manner, versus colchicine group): restored the abnormal protein levels

COc1ccc(-c2cc(=O)c3c(O)cc(O[C@@H]4O[C@H](CO[C@@H]5O[C@@H](C)[C@H](O)[C@@H](O)[C@H]5O)[C@@H](O)[C@H](O)[C@H]4O)cc3o2)cc1O [diosmin]
CASPASE-1-GSDMD pathway in primary hepatocytes (CASPASE-1-GSDMD pathway; diosmin in a dose-gradient manner + colchicine 100 µM, compared to the colchicine-only group): significantly up-regulated | colchicine-induced CASPASE-1-GSDMD pathway activation in the liver (cl-CASPASE, cl-GSDMD) (liver [3]; diosmin 100 mg/kg + colchicine 5 mg/kg, versus colchicine group): enhanced | colchicine-induced hepatotoxicity (MDA, AST, ALT, ALP) (liver [3]; diosmin 100 mg/kg by gavage 2 h prior to colchicine 5 mg/kg): effectively aggravated | primary hepatocyte death caused by colchicine (MTT) (primary hepatocytes): exacerbated

COc1cc2c(c(OC)c1OC)-c1ccc(OC)c(=O)cc1[C@@H](NC(C)=O)CC2 [colchicine, Colchicine]
mRNA and protein levels of the CYP1A1 enzyme in the liver (CYP1A1 [4]): increased | mRNA and protein levels of CYP1A1 in primary hepatocytes (CYP1A1 [5]): dose-dependently increased | CASPASE-1-GSDMD pathway in the liver (liver [6]; colchicine 5 mg/kg, versus control group): activated | ALP enzyme level in plasma (liver [6]; [7]): significantly increased | ALT enzyme level in plasma (liver [6]; [7]): significantly increased | AST enzyme level in plasma (liver [6]; [7]): significantly increased | CASPASE-1 in the liver (gene expression, immunohistochemical staining) (liver [6]; [7]): activated | body weight of mice (liver [6]; [7]): decreased significantly | gross anatomy of the liver (liver [6]; [7]): enlarged liver and shrunken gallbladder | liver histology, H&E staining (liver [6]; [7]): inflamed liver | CASPASE-1-GSDMD pathway in primary hepatocytes (CASPASE-1-GSDMD pathway; colchicine group versus control): significantly up-regulated
